Experimental data: patent US20250188457A1, “COMPOSITIONS AND METHODS FOR THE TREATMENT OF GLIOBLASTOMA BY INHIBITION OF THE TFPI2-CD51-STAT6 SIGNALING AXIS” (Northwestern University, priority 2023, published 2025)

Columns and labels:
[1] = system: SIM-A9, HMC3 microglia and PrhMG; test: Flow cytometry for CD206 and ARG1 (microglia immunosuppressive polarization); format: cell-based, human and mouse; settings: TFPI2 recombinant protein 20 ng/ml
Description: For membrane protein staining, the single-cell suspensions were washed with PBS and then incubated with fixable viability dye (Invitrogen, #5211229035) on ice for 10 min. Following washing with PBS, cells were incubated with the anti-CD16/CD32 cocktail (BioLegend, #103132) in 2% BSA PBS to block Fc receptors for 30 min on ice. Different antibody combinations, including Percp/Cy5.5 anti-mouse CD45 (BioLegend, #103132), AF488 anti-mouse CD3 (BioLegend, #100210), BV421 anti-mouse CX3CR1 (BD Bioscience, #567531), BUV395 anti-mouse CD4 (BD Bioscience, #740208), BV711 anti-mouse CD8 (BioLegend, #100747), PE/Cy7 anti-mouse/human CD11b (BioLegend, #101216), PE anti-mouse CD68 (BD Bioscience, #566386), PE anti-mouse PD1 (BioLegend, #135205), AF647 anti-mouse CD206 (BD Bioscience, #565250), AF647 anti-human CD206 (BioLegend, #321116), PE anti-human CD69 (BioLegend, #310906), PE/Cy7 anti-mouse CD69 (BioLegend, #104512), and BV650 anti-human HLA-DR (BioLegend, #307650) were added to cell suspensions for 30 min on ice. […] Samples were read in BD FACSymphony flow cytometer and analyzed in FlowJo v10.8.1.
Intracellular protein staining was performed separately or followed by cell surface marker staining. […] Then cell suspensions were rewashed in permeabilization buffer and read in BD FACSymphony flow cytometer.

[2] = system: PrhMG, HMC3 and SIM-A9 microglia; test: Transwell migration assay of microglia; format: cell-based, human and mouse; settings: TFPI2 recombinant protein 20 ng/ml
Description: For transwell migration assay, HMC3 microglia, SIM-A9 microglia, and PrhMG were suspended in serum-free culture medium and seeded into transwell 24-well plates with permeable polycarbonate membrane inserts (5.0 μm, Corning, #07-200-149). GSC conditioned media (CM), or basal cell culture medium with TFPI2 recombinant protein (BioVision, #7481-10) were added to the remaining receiver wells. The STAT6 inhibitor AS151749 (Selleck Chemicals, #S8685) was used to study the role of STAT6 in microglia migration. The CD51 inhibitor MK-0429 (MedChemExpress, #HY-15102) was used to study the role of CD51 in TFPI2-induced microglia migration. After 10 hrs, the migrated microglia were fixed and stained with crystal violet (Sigma, #C-3886). The number of transferred cells was counted using ImageJ (NIH, Bethesda, […]).

005 GSC and CT2A tumors = test: Survival of C57BL/6 mice implanted with 005 GSCs or CT2A cells; format: in vivo, mouse; settings: anti-PD1 10 mg/kg i.p. on days 11, 14 and 17, MK-0429 30 mg/kg or AS1517499 10 mg/kg i.p. every other day
Description: Female C57BL/6 (#0000664), nude mice (#007850), and B6.12952(C)-Stat6tm1Gru/J mice (STAT6-KO; #005977) at 6 weeks of age were purchased from the Jackson Laboratory. Mice were grouped by 5 animals and maintained in a pathogen-free IVC System (San Diego, CA) for a week before the experiment. All animal experiments were performed with the approval of the Institutional Animal Care and Use Committee (IACUC) at Northwestern University. The intracranial xenograft tumor models were established (Refs. 11, 61; incorporated by reference in their entireties). Ketamine (100 mg/kg) and xylazine (20 mg/kg) were used for anesthetizing mice through intraperitoneal injection. Then a dental drill was used to open a small hole in the skull 1.2 mm anterior and 3.0 mm lateral to the bregma. A total volume of […] cells in FBS-free DMEM was injected into the right caudate nucleus 3 mm below the surface of the brain using a […] Hamilton syringe with an unbeveled 30-gauge needle. Total three doses of 20 mg/kg meloxicam were administrated before and after surgery through subcutaneous injection. After cancer cell implantation, mice were monitored for recording survival. Mice with neurological deficits or moribund appearance were sacrificed. Following the transcardiac perfusion with PBS and 4% paraformaldehyde (PFA), brains were removed and fixed in 4% PFA, and were processed for paraffin-embedded blocks or cryosectioning.

[3] = system: SIM-A9 and HMC3 microglia; test: RT-qPCR for microglia marker expression; format: cell-based, human and mouse; settings: TFPI2 recombinant protein 20 ng/ml
Description: Cells were pelleted, and RNA was isolated with the RNeasy Mini Kit (Qiagen, #74106). RNA was quantified by NanoDrop spectrophotometers and then reverse-transcribed into cDNA by using the All-In-One 5×RT MasterMix (Applied Biological Materials, #G592) in T00 Thermal Cycler (Bio-Rad). RT-qPCR was performed using SYBR Green PCR Master Mix (Bio-Rad, #1725275) in CFX Connect Real-Time PCR Detection System (Bio-Rad). The expression of each gene was normalized to housekeeping genes.

GSC23 and GSC262 cells = test: Tumorsphere formation assay (GSC self-renewal); format: cell-based, human; settings: GSC262 and GSC23; indicated concentrations
Description: The tumorsphere formation assay was performed (Ref. 79; incorporated by reference in its entirety). GSCs were treated with different concentrations of recombinant TFPI2 protein for 24 hrs with or without inhibition of JNK or STAT3, or modified with TFPI21 KO, knockdown or overexpression. After treatment or genetic modifications, cells were centrifuged at 1500 rpm for 5 min and resuspended in the plain cell culture media without additional supplements. Cells were then seeded into a 96-wells plate at 100 cells/well. The number of tumorspheres in each well was imaged and quantified after 10 days.

Molecule | TFPI2-induced increase of immunosuppressive microglia (CD206 and ARG1 expression) ([1]; mouse and human microglia, AS1517499 25 nM) | TFPI2-induced transwell migration of human and mouse microglia ([2]; AS1517499 at indicated concentrations) | survival of mice bearing 005 GSC and CT2A tumors, combination with anti-PD1 therapy (005 GSC and CT2A tumors) | TFPI2-induced suppression of immunostimulatory microglia markers (MIF, IL23, CXCL11, IL6, TNFA, LFNG, HLA-DR) ([3]; AS1517499 25 nM) | GSC self-renewal (tumorspheres) upon TFPI2 recombinant protein (GSC23 and GSC262 cells) | immunosuppressive microglia (CD206 and ARG1 expression) [1] | migration of microglia (SIM-A9, HMC3, PrhMG) [2] | expression of immunostimulatory microglia markers (RT-qPCR) [3]
NC(=O)c1cnc(NCCc2ccc(O)c(Cl)c2)nc1NCc1ccccc1 [AS1517499] | negated | suppressed | synergized | countered | – | – | – | –
TFPI2 recombinant protein (tissue factor pathway inhibitor 2; BioVision, #7481-10) (ligand, UniProt P48307 23-235, looked up, Bought recombinant protein added to microglia at 20 ng/ml; also called recombinant TFPI2; secreted TFPI2) DAAQEPTGNNAEICLLPLDYGPCRALLLRYYYDRYTQSCRQFLYGGCEGNANNFYTWEACDDACWRIEKVPKVCRLQVSVDDQCEGSTEKYFFNLSSMTCEKFFSGGCHRNRIENRFPDEATCMGFCAPKKIPSFCYSPKDEGLCSANVTRYYFNPRYRTCDAFTYTGCGGNDNNFVSREDCKRACAKALKKKKKMPKLRFASRIRKIRKKQF | – | – | – | – | Enhanced | increased | dramatically increased | suppressed
